In brackets after ≈: the same amount, converted by molar mass.
Test system: UPEC (CFT073)
Test: Antimicrobial susceptibility of UPEC (CFT073) grown in urine
Assay type: cell-based, uropathogenic Escherichia coli
Description: Pooled human urine was filter-sterilized prior to use. Solid urine agar plates were prepared by supplementing cooled 1.5% (wt/vol) agar with filter-sterilized urine in a 4:1 ratio. OD600 measurements were performed on a Beckman DU800 UV/Visible spectrophotometer (Brea, CA, USA). MIC determination data were collected from bacteria in 96-well plates (Nunc Edge 96-Well, Non-Treated, Flat-Bottom Microplate) incubated and read on a Biotek Epoch 2 microplate reader. Uropathogenic E. coli strain CFT073 (ATCC: BAA-2503) was obtained from the lab of Rodney Welch ([58]). All microbial manipulation of pathogenic bacteria was conducted in a certified biosafety level 2 laboratory following all associated safety protocols. A hand-held tissue homogenizer (purchased from IKA, T10 basic S001, 3737001) was used to homogenize mouse bladders for bacterial enumeration.
UPEC (CFT073) cells from frozen glycerol stocks were streaked onto urine agar plates and grown for 48 h at 37°C. Three to five isolated colonies were inoculated into filter-sterilized urine supplemented with FeSO4 (20 µM), and the cultures were grown overnight with shaking at 37°C. The saturated cultures were subcultured (1:50) in fresh urine supplemented with FeSO4 (20 µM) and grown to exponential phase (OD600 ~ 0.25). Cultures at exponential phase were diluted 1:1,000 into fresh urine supplemented with FeSO4 (20 µM) to yield the experimental inoculum which was mixed 1:1 with urine containing pro-hpAP at 2 × the desired final concentration (0–10 µM). The final concentration of bacteria in each well was ~10^5 CFU/mL in a volume of 200 µL. Colony counts of the experimental inoculum were independently verified by dilution and enumeration on LB agar, grown for 16 h at 37°C, to confirm consistency between experiments. The 96-well plates were incubated at 37°C for 16 h with intermittent shaking. Fractional growth of cells treated with pro-hpAP was determined at 8 h relative to the no drug control. MIC determination was performed in biological triplicate.

## C#CCCOP(=O)(O)C(=C)NC(=O)C(CC(C)C)NC(=O)CN (stereo not drawn) [pro-hpAP]
Escherichia coli, UPEC CFT073 in urine, read-out: MIC (growth suppressed >90%)
  MIC: 5 µM (≈ 1.73 µg/mL)
UPEC CFT073 in urine, at 630 nM pro-hpAP, 8 h
  reduction in fractional growth: > 70%
UPEC in urine, relative to BAP
  higher potency than BAP (MIC in urine): 250 fold

Reference: article PMC10986598, “Investigating inhibitors of 1-deoxy-D-xylulose 5-phosphate synthase in a mouse model of UTI” (Microbiology Spectrum, 2024)
